As a reminder, the IC50 is the concentration that gives 50% inhibition.

Each structure is given as a SMILES string.

The target of one assay is T1, EGFR (Homo sapiens, UniProt P00533).
T1 construct: made in house; host or cells: insect cells (e.g. Spodoptera frugiperda Sf21), recombinant baculovirus
The assay is described as follows: In vitro receptor tyrosine kinase inhibition test (a), EGFR. The class given is biochemical. Conditions: read-out: IC50 in the enzyme assay (a) against EGFR. From the text:
(§1) This assay determines the ability of a test compound to inhibit tyrosine kinase activity. DNA encoding VEGF or epidermal growth factor (EGF) receptor cytoplasmic domains may be obtained by total gene synthesis (Edwards M, International Biotechnology Lab 5(3), 19-25, 1987) or by cloning. These may then be expressed in a suitable expression system to obtain polypeptide with tyrosine kinase activity. […] In the case of the VEGF receptor Flt (Genbank accession number X51602), a 1.7 kb DNA fragment encoding most of the cytoplasmic domain, commencing with methionine 783 and including the termination codon, described by Shibuya et al (Oncogene, 1990, 5: 519-524), was isolated from cDNA and cloned into a baculoviris transplacement vector (for example pAcYM1 (see The Baculovirus Expression System: A Laboratory Guide, L. A. King and R. D. Possee, Chapman and Hall, 1992) or pAc360 or pBlueBacHis (available from Invitrogen Corporation)). This recombinant construct was co-transfected into insect cells (for example Spodoptera frugiperda 21(Sf21)) with viral DNA (eg Pharmingen BaculoGold) to prepare recombinant baculovirus. […]

Assay [1] addresses T2, human ether-a-go-go-related-gene (hERG)-encoded potassium channel (Homo sapiens, UniProt Q12809).
T2 construct: expressed in transfected cells; host or cells: Human embryonic kidney (HEK) cells under G418 selection
The assay can be described thus: hERG-encoded potassium channel inhibition test (d). The class given is cell-based. Conditions: HEK cells, whole cell patch clamp, tail current. Here is the method: This assay determines the ability of a test compound to inhibit the tail current flowing through the human ether-a-go-go-related-gene (hERG)-encoded potassium channel.
Human embryonic kidney (HEK) cells expressing the hERG-encoded channel were grown in Miniium Essential Medium Eagle (EMEM; Sigma-Aldrich catalogue number M2279), supplemented with 10% Foetal Calf Serum (Labtech Internation; product number 4-101-500), 10% M1 serum-free supplement (Egg Technologies; product number 70916) and 0.4 mg/ml Geneticin G418 (Sigma-Aldrich; catalogue number G7034). […]
For each cell recorded, a glass coverslp containing the cells were placed at the bottom of a Perspex chamber containging bath solution (see below) at ambient temperature (˜20° C.). […]
The cell was recorded in the whole cell configutation of the patch clamp technique. […]
The amplitude of the hERG-encoded potassium channel tail current following the step from +40 mV to −50 mV was recorded on-line by Clampex software (Axon Instruments). […]
The effect of each concentration of test compound was quantified by expressing the tail current amplitude in the presence of a given concentration of test compound as a percentage of that in the presence of vehicle.
Test compound potency (IC50) was determined by fitting the percentage inhibition values making up the concentration-effect to a four parameter Hill equation using a standard data-fitting package.
For orientation: The hERG channel carries a current that helps repolarise heart muscle cells.

In another assay the target is T3, KDR (Homo sapiens, UniProt P35968).
T3 construct: made in house; host or cells: insect cells (e.g. Spodoptera frugiperda Sf21), recombinant baculovirus
T3 sequence (P35968 786-1356 limits assumed): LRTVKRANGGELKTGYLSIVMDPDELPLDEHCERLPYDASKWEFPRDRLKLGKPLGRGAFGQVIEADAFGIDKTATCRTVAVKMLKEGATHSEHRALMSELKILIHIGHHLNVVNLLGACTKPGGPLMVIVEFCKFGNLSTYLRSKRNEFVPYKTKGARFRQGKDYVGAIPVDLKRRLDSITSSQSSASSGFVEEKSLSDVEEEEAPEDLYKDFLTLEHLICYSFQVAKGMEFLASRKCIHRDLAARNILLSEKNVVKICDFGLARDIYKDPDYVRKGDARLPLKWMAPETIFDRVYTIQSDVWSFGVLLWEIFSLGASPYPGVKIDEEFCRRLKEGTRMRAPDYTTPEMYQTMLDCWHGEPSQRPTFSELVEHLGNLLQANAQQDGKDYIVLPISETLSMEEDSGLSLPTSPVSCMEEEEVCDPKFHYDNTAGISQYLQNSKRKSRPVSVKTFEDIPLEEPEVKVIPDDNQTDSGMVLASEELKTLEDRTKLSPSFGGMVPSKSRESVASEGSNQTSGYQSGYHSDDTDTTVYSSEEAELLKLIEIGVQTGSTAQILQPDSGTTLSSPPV
The assay can be described thus: In vitro receptor tyrosine kinase inhibition test (a), KDR. The class given is biochemical. Conditions: read-out: IC50 in the enzyme assay (a) against KDR.
Excerpt: as §1

Assay [2] deals with VEGF-stimulated proliferation of human umbilical vein endothelial cells (HUVEC). The assay can be described thus: In vitro HUVEC proliferation assay (b), VEGF-stimulated. The class given is cell-based. Conditions: VEGF 3 ng/ml, read-out: IC50 in the HUVEC assay (b) with respect to VEGF. How it is done: (§2) This assay determines the ability of a test compound to inhibit the growth factor-stimulated proliferation of human umbilical vein endothelial cells (HUVEC).
(§3) HUVEC cells were isolated in MCDB 131 (Gibco BRL)+7.5% v/v fetal calf serum (PCS) and were plated out (at passage 2 to 8), in MCDB 131+2% v/v FCS+3 μg/ml heparin+1 µg/ml hydrocortisone, at a concentration of 1000 cells/well in 96 well plates. After a minimum of 4 hours they were dosed with the appropriate growth factor (i.e. VEGF 3 ng/ml, EGF 3 ng/ml or b-FGF 0.3 ng/ml) and compound. The cultures were then incubated for 4 days at 37° C. with 7.5% carbon dioxide. On day 4 the cultures were pulsed with 1 μCi/well of tritiated-thymidine (Amersham product TRA 61) and incubated for 4 hours. The cells were harvested using a 96-well plate harvester (Tomtek) and then assayed for incorporation of tritium with a Beta plate counter. Incorporation of radioactivity into cells, expressed as cpm, was used to measure inhibition of growth factor-stimulated cell proliferation by compounds.

For assay [3], the system named is EGF-stimulated proliferation of human umbilical vein endothelial cells (HUVEC). The assay is described as follows: In vitro HUVEC proliferation assay (b), EGF-stimulated. The class given is cell-based. To be noted: EGF 3 ng/ml, read-out: IC50 in the HUVEC assay (b) with respect to EGF. How it is done: as §2, §3
For a further assay, the target named is T4, Flt-1 (Homo sapiens, UniProt P17948).
T4 construct: encoding most of the cytoplasmic domain, commencing with methionine 783 and including the termination codon; made in house; host or cells: Sf21 insect cells, recombinant baculovirus
T4 sequence (P17948 781-1338 limits assumed): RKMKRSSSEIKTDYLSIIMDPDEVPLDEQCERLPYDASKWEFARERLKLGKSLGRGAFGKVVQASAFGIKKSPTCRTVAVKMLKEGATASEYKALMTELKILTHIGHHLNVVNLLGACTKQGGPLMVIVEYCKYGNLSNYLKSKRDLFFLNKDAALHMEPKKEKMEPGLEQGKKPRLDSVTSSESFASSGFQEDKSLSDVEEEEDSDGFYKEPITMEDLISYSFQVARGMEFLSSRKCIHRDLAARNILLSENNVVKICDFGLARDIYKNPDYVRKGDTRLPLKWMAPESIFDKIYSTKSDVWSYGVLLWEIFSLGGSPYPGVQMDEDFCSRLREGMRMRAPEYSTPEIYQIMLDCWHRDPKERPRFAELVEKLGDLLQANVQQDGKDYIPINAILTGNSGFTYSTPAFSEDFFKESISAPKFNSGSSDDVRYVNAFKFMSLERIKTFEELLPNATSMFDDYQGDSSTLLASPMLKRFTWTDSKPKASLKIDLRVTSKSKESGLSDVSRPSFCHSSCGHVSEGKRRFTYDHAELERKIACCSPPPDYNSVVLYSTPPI
The assay can be described thus: In vitro receptor tyrosine kinase inhibition test (a), Flt-1. The format is biochemical. Conditions: read-out: IC50 in the enzyme assay (a) against Flt-1.
Excerpt: as §1

T1 sequence (P00533 669-1210 limits assumed): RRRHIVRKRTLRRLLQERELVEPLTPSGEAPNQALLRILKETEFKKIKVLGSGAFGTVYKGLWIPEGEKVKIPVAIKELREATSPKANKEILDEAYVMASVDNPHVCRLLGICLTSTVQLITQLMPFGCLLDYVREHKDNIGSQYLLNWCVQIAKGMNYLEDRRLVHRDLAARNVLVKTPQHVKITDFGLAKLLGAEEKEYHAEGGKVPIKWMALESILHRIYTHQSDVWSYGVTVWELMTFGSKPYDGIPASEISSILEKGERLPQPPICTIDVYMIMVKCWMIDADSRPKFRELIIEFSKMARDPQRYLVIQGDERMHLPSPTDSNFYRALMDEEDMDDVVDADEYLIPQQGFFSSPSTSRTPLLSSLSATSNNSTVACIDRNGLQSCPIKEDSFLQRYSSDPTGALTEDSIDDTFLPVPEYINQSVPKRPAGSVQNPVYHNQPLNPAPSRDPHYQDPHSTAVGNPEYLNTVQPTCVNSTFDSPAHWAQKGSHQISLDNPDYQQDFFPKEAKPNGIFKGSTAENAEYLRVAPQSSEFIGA
T2 sequence (Q12809 whole entry): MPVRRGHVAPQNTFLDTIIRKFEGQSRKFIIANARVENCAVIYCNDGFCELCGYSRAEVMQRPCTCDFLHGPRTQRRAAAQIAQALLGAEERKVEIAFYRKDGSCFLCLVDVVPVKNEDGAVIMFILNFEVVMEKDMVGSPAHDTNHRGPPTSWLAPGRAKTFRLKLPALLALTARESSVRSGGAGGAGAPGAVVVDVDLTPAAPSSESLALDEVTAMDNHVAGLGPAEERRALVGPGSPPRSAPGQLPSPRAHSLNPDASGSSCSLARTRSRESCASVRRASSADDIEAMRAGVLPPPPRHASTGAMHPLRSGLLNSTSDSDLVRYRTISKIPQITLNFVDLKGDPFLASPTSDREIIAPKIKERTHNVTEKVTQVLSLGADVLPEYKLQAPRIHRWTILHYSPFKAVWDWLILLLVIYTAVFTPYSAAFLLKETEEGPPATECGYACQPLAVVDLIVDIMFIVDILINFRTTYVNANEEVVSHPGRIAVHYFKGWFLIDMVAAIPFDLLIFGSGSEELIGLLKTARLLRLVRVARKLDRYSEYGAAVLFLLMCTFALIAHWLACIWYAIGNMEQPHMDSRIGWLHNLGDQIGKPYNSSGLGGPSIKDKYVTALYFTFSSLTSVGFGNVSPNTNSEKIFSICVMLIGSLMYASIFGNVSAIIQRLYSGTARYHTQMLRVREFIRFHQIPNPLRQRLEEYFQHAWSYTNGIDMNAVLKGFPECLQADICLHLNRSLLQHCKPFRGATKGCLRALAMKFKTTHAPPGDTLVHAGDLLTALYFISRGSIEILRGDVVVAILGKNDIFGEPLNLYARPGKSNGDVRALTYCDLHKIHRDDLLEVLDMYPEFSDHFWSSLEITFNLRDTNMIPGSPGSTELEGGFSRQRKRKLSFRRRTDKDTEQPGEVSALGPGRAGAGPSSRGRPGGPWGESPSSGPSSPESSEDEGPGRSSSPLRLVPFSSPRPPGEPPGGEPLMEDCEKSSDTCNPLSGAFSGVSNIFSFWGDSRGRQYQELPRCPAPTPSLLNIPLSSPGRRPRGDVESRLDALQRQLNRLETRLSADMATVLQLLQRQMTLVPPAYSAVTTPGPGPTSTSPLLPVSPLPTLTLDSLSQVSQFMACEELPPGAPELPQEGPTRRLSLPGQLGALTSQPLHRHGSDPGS

For `COc1cc2c(Nc3ccc(Br)cc3F)ncnc2cc1OCC1CCN(C(=O)CN(C)C)CC1` [Example 1, 4-(4-bromo-2-fluoroanilino)-7-({1-[(N,N-dimethylamino)acetyl]piperidin-4-yl}methoxy)-6-methoxyquinazoline], the concentration for half-maximal inhibition (IC50) is 72 nM on EGFR; 1500 nM in assay [1]; 29 nM at KDR; 11.4 nM in assay [2]; 100 nM in assay [3]; 490 nM on Flt-1.

Source of the values: patent US20070027145A1, “Quinazoline derivatives as inhibitors of vegf receptor tyrosine kinases” (priority 2003, published 2007).
